Paper doi:10.1101/2024.02.22.581678v1 (biorxiv, 2024)

Biological target: MeAmi_SBP
Experiment: isothermal analysis of ligand-titrated DSF
Assay type: binding, Mesorhizobium sp.
Conditions: 50 mM Tris, 300 mM NaCl, pH 7.4; 8.4 μM His6-tagged protein; one-site model

SMILES	Kd [nM]
NC(=O)[C@@H](N)Cc1ccc(O)cc1 [L-tyrosinamide]	187
C[C@H](N)C(N)=O [L-alaninamide]	1530
NCC(N)=O [glycinamide]	49700
